Test results taken from ChEMBL document CHEMBL1201862, “PubChem BioAssay data set” (2004).
Activity calls are given as the source filed them.

Key:
[1] = test system: P388/ADR; test: cells; type: functional; settings: Mus musculus
[2] = test system: SN12K1; test: cells; type: functional; settings: Homo sapiens
[3] = test system: P388; test: cells; type: functional; settings: Mus musculus
[4] = blockers of HIV-1 envelope-mediated cell-cell fusion – cherry-pick, dose response (AID 652057); type: functional, cell-based
[5] = HIV-1 AD8 envelope cell-cell fusion blockers – cherry-pick, dose response (AID 652062); type: functional, cell-based;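 note: luciferase signal from cell-cell fusion driven by HIV-1 clade B AD8 Env; potency is for inhibitors of fusion seen as a drop in luminescence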
[6] = off-target signal loss in HeLa-CEM21 co-culture – HeLa F-luc CTL cells, cherry-picked, counter-screen for HIV-1 Env fusion inhibitor project, dose response (AID 652040); type: functional, cell-based;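 note: potency for signal decrease marking cytotoxic or nonspecific inhibition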
[7] = blockers of HIV-1 ZM109 envelope-driven cell-cell fusion – HeLa effector, CEM target cells, luciferase, cherry-pick, dose response (AID 652058); type: functional, cell-based;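 note: luciferase signal from HIV-1 Env mediated cell-cell fusion of effector and target cells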
[8] = target: T1, High affinity choline transporter 1 (Homo sapiens, UniProt Q9GZV3); test: human choline transporter blockers, potency – cell-based, 5-point CRC, membrane potential dye, dose response (AID 504840); type: functional
T1 sequence (Q9GZV3 whole entry): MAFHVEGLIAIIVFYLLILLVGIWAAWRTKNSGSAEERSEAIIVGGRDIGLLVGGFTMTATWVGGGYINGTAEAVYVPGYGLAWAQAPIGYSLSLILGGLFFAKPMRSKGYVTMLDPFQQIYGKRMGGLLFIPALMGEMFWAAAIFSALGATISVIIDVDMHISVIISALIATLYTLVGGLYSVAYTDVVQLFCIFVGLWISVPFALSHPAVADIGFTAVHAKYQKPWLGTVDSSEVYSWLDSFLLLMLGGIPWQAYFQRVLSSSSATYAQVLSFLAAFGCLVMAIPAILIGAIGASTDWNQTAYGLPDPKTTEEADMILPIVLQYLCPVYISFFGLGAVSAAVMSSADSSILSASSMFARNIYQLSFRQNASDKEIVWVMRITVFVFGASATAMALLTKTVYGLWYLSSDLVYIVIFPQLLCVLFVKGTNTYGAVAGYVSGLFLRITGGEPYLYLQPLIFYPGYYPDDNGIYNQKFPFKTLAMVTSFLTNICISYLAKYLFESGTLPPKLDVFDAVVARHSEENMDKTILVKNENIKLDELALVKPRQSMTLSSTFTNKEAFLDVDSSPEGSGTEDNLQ

[9] = target: Large T antigen (Simian virus 40, UniProt P03070); type: functional, Betapolyomavirus macacae;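 note: Confirmatory-stage PubChem screen for compounds that inhibit SV40 T antigen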
Chain of Large T antigen (P03070 whole entry): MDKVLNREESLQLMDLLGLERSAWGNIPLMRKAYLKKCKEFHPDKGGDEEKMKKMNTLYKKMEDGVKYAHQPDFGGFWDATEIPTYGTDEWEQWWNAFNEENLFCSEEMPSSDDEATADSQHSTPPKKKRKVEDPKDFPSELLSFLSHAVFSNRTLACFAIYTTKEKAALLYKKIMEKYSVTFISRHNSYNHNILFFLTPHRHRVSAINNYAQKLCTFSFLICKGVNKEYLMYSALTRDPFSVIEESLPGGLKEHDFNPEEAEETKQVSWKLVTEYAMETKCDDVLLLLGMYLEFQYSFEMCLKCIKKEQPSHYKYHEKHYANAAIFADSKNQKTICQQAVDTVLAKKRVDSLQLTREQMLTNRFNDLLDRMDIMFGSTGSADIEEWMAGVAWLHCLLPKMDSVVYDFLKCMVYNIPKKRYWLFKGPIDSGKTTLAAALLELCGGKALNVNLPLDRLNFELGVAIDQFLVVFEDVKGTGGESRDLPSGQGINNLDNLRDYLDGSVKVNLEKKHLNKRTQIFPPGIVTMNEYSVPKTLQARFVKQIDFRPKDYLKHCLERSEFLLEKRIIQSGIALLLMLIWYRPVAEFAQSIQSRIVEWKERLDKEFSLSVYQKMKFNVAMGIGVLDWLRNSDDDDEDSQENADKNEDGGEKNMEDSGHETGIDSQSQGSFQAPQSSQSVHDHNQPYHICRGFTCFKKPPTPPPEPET

[10] = target: T2, Heat shock factor protein 1 (Mus musculus, UniProt P38532); test: decrease of HSF1-responsive luciferase luminescence – cell-based, NIH3T3, dose retest, confirmation (AID 2382); type: functional;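 note: NIH3T3 fibroblasts with HSF1-driven luciferase reporter stressed by proteasome inhibitor MG132; luminescence from HSF1-driven luciferase expression after 8 hours of MG132 stress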
T2 sequence (P38532 whole entry): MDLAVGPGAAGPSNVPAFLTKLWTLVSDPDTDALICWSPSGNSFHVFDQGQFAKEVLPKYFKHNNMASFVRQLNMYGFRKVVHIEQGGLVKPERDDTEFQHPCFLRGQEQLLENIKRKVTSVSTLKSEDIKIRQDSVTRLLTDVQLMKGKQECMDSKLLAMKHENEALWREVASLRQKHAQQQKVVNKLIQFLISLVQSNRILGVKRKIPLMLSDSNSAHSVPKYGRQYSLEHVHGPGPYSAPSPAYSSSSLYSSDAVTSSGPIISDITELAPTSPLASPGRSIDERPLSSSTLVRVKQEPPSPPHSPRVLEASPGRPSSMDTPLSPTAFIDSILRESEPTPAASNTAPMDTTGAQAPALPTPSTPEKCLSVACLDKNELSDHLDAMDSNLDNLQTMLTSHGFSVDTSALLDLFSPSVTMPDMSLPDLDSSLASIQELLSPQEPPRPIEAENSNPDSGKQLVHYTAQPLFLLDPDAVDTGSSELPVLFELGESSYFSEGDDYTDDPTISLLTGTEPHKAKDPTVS

[11] = target: FAD-linked sulfhydryl oxidase ALR (Homo sapiens, UniProt P55789); test: ALR-catalysed DTT oxidation blockers – biochemical, H2O2 detection, luminescence, cherry-pick, dose response (AID 493248)
Chain of FAD-linked sulfhydryl oxidase ALR (P55789 whole entry): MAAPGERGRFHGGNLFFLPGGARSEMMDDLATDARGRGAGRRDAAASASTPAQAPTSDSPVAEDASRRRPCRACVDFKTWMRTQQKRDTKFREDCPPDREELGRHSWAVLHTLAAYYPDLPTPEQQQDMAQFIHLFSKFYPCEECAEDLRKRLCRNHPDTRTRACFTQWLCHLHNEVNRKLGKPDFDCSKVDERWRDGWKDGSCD

[12] = target: T3, Rac GTPase-activating protein 1 (Homo sapiens, UniProt Q9H0H5); test: blockers of MgcRacGAP-driven Rac1 GTP hydrolysis – biochemical, ADP Hunter fluorescence, primary and confirmatory, confirmation (AID 624330); type: functional
T3 sequence (Q9H0H5 whole entry): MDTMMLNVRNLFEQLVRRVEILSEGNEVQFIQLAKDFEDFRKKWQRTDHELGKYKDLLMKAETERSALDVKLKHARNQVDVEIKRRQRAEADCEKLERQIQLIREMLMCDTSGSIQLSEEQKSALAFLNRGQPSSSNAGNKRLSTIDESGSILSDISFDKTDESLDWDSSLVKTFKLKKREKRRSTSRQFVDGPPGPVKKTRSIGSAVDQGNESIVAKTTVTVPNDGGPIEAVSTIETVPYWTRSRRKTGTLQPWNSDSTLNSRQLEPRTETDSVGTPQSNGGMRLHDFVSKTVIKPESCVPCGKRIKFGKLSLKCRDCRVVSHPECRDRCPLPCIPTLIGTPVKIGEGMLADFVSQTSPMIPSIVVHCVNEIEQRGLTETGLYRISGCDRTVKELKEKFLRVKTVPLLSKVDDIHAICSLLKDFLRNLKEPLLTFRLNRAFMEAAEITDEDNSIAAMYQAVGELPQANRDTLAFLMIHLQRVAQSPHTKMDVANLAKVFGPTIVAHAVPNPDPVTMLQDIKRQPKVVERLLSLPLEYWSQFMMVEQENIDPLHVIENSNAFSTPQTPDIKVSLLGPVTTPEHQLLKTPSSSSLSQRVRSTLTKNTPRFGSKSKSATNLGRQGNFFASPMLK

[13] = luciferase reporter signal suppression in cells – H4 neuroglioma cells, luminescence, dose response (AID 1990); type: functional, cell-based
[14] = alpha-synuclein stem-loop luciferase translation blockers – H4 neuroglioma cells, luminescence, confirmation (AID 1988); type: functional, cell-based
[15] = target: T4, Fatty acid synthase (Homo sapiens, UniProt P49327); test: inhibition of human FAS-TE enzyme activity – biochemical, kinetic fluorescence intensity, dose response (AID 624326); type: functional;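 note: rate of fluorescence rise from hydrolysis of a fluorogenic O-methyl fluorescein ester substrate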
T4 sequence (P49327 whole entry): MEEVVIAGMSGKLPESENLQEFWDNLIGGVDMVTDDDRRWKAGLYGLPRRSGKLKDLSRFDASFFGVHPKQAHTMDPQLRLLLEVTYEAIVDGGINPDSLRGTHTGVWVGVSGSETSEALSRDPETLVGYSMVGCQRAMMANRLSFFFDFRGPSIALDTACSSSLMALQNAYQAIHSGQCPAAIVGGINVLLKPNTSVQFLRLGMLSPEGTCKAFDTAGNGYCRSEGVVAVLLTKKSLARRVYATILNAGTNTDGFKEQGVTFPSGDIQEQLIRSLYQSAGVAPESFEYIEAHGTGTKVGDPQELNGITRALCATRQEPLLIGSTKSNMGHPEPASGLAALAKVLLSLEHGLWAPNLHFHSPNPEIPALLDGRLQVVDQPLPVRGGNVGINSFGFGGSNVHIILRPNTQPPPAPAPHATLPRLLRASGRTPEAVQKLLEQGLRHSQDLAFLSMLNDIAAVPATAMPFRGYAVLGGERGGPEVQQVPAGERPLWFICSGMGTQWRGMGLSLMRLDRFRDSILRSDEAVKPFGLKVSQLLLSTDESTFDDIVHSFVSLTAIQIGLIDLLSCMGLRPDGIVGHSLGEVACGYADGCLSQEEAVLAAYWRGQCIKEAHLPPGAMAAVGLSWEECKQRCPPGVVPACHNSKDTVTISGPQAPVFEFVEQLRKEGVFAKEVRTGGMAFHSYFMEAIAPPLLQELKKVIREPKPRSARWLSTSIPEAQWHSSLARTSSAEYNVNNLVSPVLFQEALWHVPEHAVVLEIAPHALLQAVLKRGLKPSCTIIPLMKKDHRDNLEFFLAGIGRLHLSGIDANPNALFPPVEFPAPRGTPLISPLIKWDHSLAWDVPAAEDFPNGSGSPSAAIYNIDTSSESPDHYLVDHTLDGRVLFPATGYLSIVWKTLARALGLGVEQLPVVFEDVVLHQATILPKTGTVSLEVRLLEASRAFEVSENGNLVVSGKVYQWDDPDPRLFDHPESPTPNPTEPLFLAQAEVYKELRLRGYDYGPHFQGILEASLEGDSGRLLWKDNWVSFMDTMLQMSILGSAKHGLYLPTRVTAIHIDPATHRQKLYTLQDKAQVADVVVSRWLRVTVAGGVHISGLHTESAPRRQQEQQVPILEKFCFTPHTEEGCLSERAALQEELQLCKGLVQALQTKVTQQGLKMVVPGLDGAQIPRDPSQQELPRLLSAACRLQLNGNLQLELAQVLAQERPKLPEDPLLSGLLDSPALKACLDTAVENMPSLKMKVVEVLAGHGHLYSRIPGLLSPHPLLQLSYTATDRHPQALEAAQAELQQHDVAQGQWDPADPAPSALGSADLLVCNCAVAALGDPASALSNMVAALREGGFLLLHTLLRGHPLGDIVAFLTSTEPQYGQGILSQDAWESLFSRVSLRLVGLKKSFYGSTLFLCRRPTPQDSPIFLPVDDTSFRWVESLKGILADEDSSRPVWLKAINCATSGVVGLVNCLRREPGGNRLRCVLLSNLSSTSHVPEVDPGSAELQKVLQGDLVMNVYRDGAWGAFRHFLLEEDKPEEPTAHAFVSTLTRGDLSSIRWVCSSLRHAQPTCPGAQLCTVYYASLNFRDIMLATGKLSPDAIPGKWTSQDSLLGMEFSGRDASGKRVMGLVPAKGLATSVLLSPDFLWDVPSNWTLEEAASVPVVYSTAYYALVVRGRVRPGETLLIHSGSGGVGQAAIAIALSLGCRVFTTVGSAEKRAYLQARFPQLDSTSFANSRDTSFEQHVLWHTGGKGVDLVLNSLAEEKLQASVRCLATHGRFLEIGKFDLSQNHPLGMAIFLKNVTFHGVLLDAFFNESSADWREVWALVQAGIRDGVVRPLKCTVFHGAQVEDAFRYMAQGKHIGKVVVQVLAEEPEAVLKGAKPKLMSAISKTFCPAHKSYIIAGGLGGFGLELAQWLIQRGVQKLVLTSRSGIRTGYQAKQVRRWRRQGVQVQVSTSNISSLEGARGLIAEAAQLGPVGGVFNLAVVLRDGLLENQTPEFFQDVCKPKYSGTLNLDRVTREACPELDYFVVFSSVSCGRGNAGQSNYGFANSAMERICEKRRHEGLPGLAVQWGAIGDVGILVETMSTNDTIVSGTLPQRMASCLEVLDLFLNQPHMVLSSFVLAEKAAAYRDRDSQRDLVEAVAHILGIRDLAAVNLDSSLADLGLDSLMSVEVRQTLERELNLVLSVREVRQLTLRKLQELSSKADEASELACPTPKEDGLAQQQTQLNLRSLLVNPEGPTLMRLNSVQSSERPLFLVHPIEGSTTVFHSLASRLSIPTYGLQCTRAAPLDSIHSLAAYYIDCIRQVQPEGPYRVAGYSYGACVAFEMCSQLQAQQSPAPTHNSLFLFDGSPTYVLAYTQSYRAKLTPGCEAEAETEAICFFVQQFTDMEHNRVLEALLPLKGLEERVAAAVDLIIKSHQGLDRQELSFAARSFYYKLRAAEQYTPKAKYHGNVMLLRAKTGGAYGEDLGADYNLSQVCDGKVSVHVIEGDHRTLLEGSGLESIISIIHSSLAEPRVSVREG

[16] = target: T4, Fatty acid synthase; test: inhibition of human FAS-TE enzyme activity – biochemical, endpoint fluorescence intensity, uHTS hits, dose response (AID 624327); type: functional;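 note: fluorescence from hydrolysis of an O-methyl fluorescein acyl ester substrate by the enzyme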
[17] = target: T5, Protein skinhead-1 (Caenorhabditis elegans, UniProt P34707); type: functional
T5 sequence (P34707 whole entry): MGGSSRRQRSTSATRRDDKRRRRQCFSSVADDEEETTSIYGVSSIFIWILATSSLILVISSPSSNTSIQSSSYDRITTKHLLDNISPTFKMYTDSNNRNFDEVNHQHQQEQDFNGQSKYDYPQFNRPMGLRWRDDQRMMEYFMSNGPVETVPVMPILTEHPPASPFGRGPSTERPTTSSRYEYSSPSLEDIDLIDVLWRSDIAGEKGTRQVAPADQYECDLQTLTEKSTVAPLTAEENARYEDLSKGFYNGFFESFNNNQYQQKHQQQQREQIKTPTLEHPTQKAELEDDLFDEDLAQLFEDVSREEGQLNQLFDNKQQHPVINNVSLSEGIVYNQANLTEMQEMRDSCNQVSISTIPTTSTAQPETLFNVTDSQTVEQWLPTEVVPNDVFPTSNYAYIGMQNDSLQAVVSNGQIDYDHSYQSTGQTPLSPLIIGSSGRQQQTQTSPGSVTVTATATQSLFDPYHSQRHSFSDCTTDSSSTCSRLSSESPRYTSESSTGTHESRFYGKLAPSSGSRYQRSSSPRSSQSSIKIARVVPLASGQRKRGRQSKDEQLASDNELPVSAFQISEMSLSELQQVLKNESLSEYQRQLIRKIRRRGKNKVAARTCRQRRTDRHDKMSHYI

## Cc1ccc(N(O)C(C)(C)C)cc1
[1]
  GI50: 24.8 µM (inactive)
[2]
  GI50: > 100 µM (inactive)
[3]
  GI50: > 52.1 µM (inactive)

## CC[C@@]12C(=O)N(c3ccccc3)C(=O)N1[C@H](c1ccc(OC)cc1)[C@@H]1C(=O)N(C(C)(C)C)C(=O)[C@@H]12
[4]
  AC50: 1.22 µM (active)
[5]
  AC50: 3.89 µM (active)
[6]
  AC50: 2.68 µM (active)
[7]
  AC50: 1.67 µM (active)

## C[C@@]12CC(=O)NC1N(C(=O)c1cccc(C(F)(F)F)c1)C(c1ccccc1O)C2 (some centres not stated)
[4]
  AC50: 3.74 µM (active)
[5]
  AC50: 26.7 µM (active)
[6]
  AC50: 7.18 µM (active)
[7]
  AC50: 7.54 µM (active)

## CCC1(C)Cc2c(sc3nnn(CC(=O)Nc4ccccc4)c(=O)c23)CO1 (configuration not stated)
[8]
  IC50: 11.5 µM (active)

## COc1ccc(C(=O)N(C)Cc2ccc(C)o2)cc1OC1CCN(C(C)C)CC1
[8]
  IC50: 12.6 µM (active)

## NC(=O)NN=C(CS)CS
[1]
  GI50: 29.2 µM (inactive)
[2]
  GI50: 18.7 µM (inactive)
[3]
  GI50: 19.1 µM (inactive)

## O=C(Cn1ncc2c(=O)oc3ccccc3c21)N1CCC(N2CCCCC2)CC1
[5]
  AC50: 2.31 µM (active)
[6]
  AC50: 38.2 µM (active)

## Cc1ccc(C(C(=O)NC2CCCCC2)N(C(=O)c2csnn2)C2CCCC2)o1 (configuration not stated)
[4]
  AC50: 14.1 µM (active)
[5]
  AC50: 6.08 µM (active)
[6]
  AC50: 13.5 µM (active)
[7]
  AC50: 3.63 µM (active)

## O=C1NC(=O)N(c2ccc(Cl)cc2)C(=O)/C1=C/c1coc2ccc(O)cc2c1=O
[8]
  IC50: 12.7 µM (active)
[9]
  IC50: > 100 µM (active)

## CCCn1c2ccccc2c2cnn(CC(=O)NCCN(C)C)c(=O)c21
[8]
  IC50: 11.5 µM (active)

## C/C(=N\NC(=S)N1CCN(c2ccccn2)CC1)c1ncccn1
[1]
  GI50: 0.00356 µM (active)
[2]
  GI50: 0.007 µM (active)
[3]
  GI50: 0.00326 µM (active)

## CC(=O)/C=C/c1c[nH]c(=O)[nH]c1=O
[1]
  GI50: 148 µM (inactive)
[2]
  GI50: 121 µM (inactive)
[3]
  GI50: 164 µM (inactive)

## COc1cc(/N=N\c2cccc(S(=O)(=O)O)c2)c(C)cc1/N=N\c1ccc(/C=C/c2ccc(/N=[N+](/[O-])c3ccc(/C=C/c4ccc(/N=N\c5cc(C)c(/N=N/c6cccc(S(=O)(=O)O)c6)cc5OC)cc4)c(S(=O)(=O)O)c3)cc2S(=O)(=O)O)cc1
[2]
  GI50: > 100 µM (inactive)
[3]
  GI50: > 100 µM (inactive)

## CC(=O)NC(Cc1ccsc1)C(=O)O (configuration not stated)
[1]
  GI50: > 100 µM (inactive)
[2]
  GI50: > 100 µM (inactive)
[3]
  GI50: > 100 µM (inactive)

## CC1=C2C(=CO[C@H](C)[C@H]2C)C(O)=C(C(=O)O)C1=O [CITRININ]
[1]
  GI50: 11.5 µM (inactive)
[2]
  GI50: 15.3 µM (inactive)
[3]
  GI50: 17 µM (inactive)

## COc1ccc(-c2nnn(CC(=O)N(Cc3cccs3)C(C)C(=O)NC3CCCC3)n2)cc1OC (configuration not stated)
[4]
  AC50: 5.2 µM (active)
[5]
  AC50: 10.1 µM (active)
[6]
  AC50: 24.8 µM (active)
[7]
  AC50: 9.35 µM (active)

## COc1cccc2c1C(=O)c1c(O)c3c(c(O)c1C2=O)C[C@@](O)(C(C)=O)C[C@@H]3OC1CC(N)C(O)C(C)O1 (some centres not stated)
[1]
  GI50: 1.23 µM (inactive)
[2]
  GI50: 0.069 µM (active)
[3]
  GI50: 0.076 µM (active)

## O=C(Nc1ccc(F)c(Cl)c1)C1CCN(S(=O)(=O)c2cccnc2)CC1
[8]
  IC50: 13.2 µM (active)
[10]
  EC50: > 195 µM (not active)

## CCN(CC)c1ccc(NC(=O)CNCc2ccccc2Cl)c(C)c1
[8]
  IC50: 20.9 µM (active)
[11]
  AC50: 1.61 µM (active)
[12]
  IC50: 31 µM (active)

## COc1ccc(C(=O)C(C)N(C(=O)c2ccc(Cl)cc2Cl)N2C(=O)C3C4C=CC(C4)C3C2=O)cc1 (configuration not stated)
[4]
  AC50: 2.94 µM (active)
[13]
  EC50: 16.7 µM (active)
[14]
  EC50: > 120 µM (not active)
[5]
  AC50: 13.1 µM (active)
[6]
  AC50: 4.93 µM (active)
[7]
  AC50: 2.82 µM (active)

## Cc1ccc(S(=O)(=O)c2nnn3c2nc(N2CCC(C(N)=O)CC2)c2ccccc23)cc1C
[15]
  IC50: 8.84 µM (active)
[16]
  IC50: 11.4 µM (active)

## O=C1NCCN(Cc2cccc(Oc3ccccc3)c2)C1CC(=O)N1CCCCC1 (configuration not stated)
[4]
  AC50: 3.76 µM (active)
[5]
  AC50: 8.77 µM (active)
[6]
  AC50: 11.1 µM (active)
[7]
  AC50: 10.9 µM (active)

## CC(NC(=O)C(C(=O)c1cccc([N+](=O)[O-])c1)n1cc(Cl)ccc1=O)c1ccccc1 (configuration not stated)
[15]
  IC50: 7.89 µM (active)
[16]
  IC50: 8.63 µM (active)

## COc1ccc(CN(C)C(=O)COC(=O)c2cc([N+](=O)[O-])ccc2N2CCCC2)c(OC)c1OC
[15]
  IC50: 6.71 µM (active)
[16]
  IC50: 5.42 µM (active)

## CC(=O)N1N=C(c2cccc([N+](=O)[O-])c2)OC1c1cccc(Br)c1 (configuration not stated)
[15]
  IC50: 11.9 µM (active)
[16]
  IC50: 9.14 µM (active)

## C/C=C/C=N/NC(=O)CN(c1ccc(Br)cc1)S(=O)(=O)c1ccccc1
[15]
  IC50: 10.1 µM (active)
[16]
  IC50: 10.6 µM (active)

## Cc1cc(C)c2nc(C(F)(F)F)nc(N3CCN(C(=O)c4ccco4)CC3)c2c1
[4]
  AC50: 31.2 µM (active)
[17]
  IC50: > 100 µM (inactive)
[5]
  AC50: 25.7 µM (active)
[6]
  AC50: 21.9 µM (active)
[7]
  AC50: 1.22 µM (active)

## CN(C)c1ccc(C(=O)c2ccc(O)cc2O)cc1
[8]
  IC50: 11 µM (active)
